Results reported in US20230203096A1, “EPHA4 TARGETING COMPOUNDS AND METHODS OF USE THEREOF” (priority 2020, published 2023).
Where two headings read alike, the source gives them in different places. Square brackets hold non-standard residues; d marks the D form. Peptide text beside a SMILES is read from it. * marks the point of attachment. Phe(4-(2-MeO-Ph)) = COc1ccccc1-c1ccc(C[C@H](N)C(=O)O)cc1; Cyclohexanoyl(1S,3S-3-NH2) = N[C@H]1CCC[C@H](C(=O)*)C1; Trp(5-OMe) = COc1ccc2[nH]cc(C[C@H](N)C(=O)O)c2c1; Trp(5-OH) = N[C@@H](Cc1c[nH]c2ccc(O)cc12)C(=O)O; NHPh(4-CH2-morpholino) = c1cc(N*)ccc1CN1CCOCC1; NH(4-morpholinophenyl) = c1cc(N2CCOCC2)ccc1N*; Bip = N[C@@H](Cc1ccc(-c2ccccc2)cc1)C(=O)O; hArg = N=C(N)NCCCC[C@H](N)C(=O)O; X2 = Fc1cc(N*)ccc1N1CCOCC1; X3 = c1cc(N2CCNCC2)ccc1N*

Key:
Aqueous solubility = format: physicochemical
[1] = biological target: T1, recombinant EphA4 ligand binding domain (Homo sapiens, UniProt P54764, C204A); experiment: Isothermal titration calorimetry (ITC) against EphA4-LBD
T1 construct: His tag (N); made in house; host or cells: E. coli Rosetta-Gami B(DE3), pET15b
T1 sequence (P54764 29-209 C204A): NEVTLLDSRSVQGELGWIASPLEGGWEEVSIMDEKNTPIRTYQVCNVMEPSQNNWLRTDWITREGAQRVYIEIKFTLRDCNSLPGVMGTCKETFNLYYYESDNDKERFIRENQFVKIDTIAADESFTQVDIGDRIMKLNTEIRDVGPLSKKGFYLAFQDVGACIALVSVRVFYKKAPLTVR
Procedure: Peptides were synthesized by using standard solid-phase synthesis protocol, using the BAL resin as anchoring for the C-terminal amines. Isothermal Titration Calorimetry (ITC) measurements were performed in a reverse fashion by titrating the protein into the ligand solution. Solution nuclear magnetic resonance (NMR) experiments were conducted on a 700 MHz Bruker Avance spectrometer equipped with a TCI cryoprobe. Each protein sample was dissolved into an NMR tube at a final concentration of 20 μM (1% DMSO-d6) in the presence of 20 μM of each compound.
The fragments were transformed into Rosetta-Gami B(DE3) competent cells and grown in LB medium at 37° C. with 100 μg/mL of ampicillin until reaching an OD600 of 0.6-0.7 followed by induction with 0.4 mM IPTG overnight at 20° C. Bacteria were then collected by centrifugation and lysed by sonication at 4° C. […] EphA4 LBD with ^13C^ε/^1H^ε-Met labeled was expressed like previously described but adding a suspension of 100 mg of ^13C^ε/^1H^ε-Methionine in 1 mL of DMSO per liter of LB medium, 10 minutes before induction. […] Transformation, expression, and purification of EphA3-LBD chimera was performed as described above for EphA4-LBD.
Isothermal titration calorimetry (ITC) measurements were performed using the Affinity ITC Autosampler from TA Instruments (New Castle, Del.). The titrations were performed in a reverse fashion by titrating the protein into the ligand solution. […] The syringe was filled with a 100 μM solution of EphA4-LBD, EphA3-LBD Chimera, or EphA2-LBD, and 20 injections of 2.5 μL each were performed into the cell containing a 20 μM solution of the compounds. The injections were made at 200 s or 400 s intervals with a stirring speed of 75 rpm. All the solutions were kept in the autosampler at 4° C. The analysis of the thermodynamics signatures and for dissociation constant determination was performed by the NanoAnalyze software (TA Instruments, New Castle, Del.) and subsequently exported into Microsoft Excel.

[2] = biological target: T2, ^13C^ε-Met-labeled EphA4-LBD (Homo sapiens, UniProt P54764, C204A); experiment: 2D [13C,1H] HSQC NMR chemical shift perturbation of Met resonances; format: binding; settings: for Δδ ^13C^ϵ/^1H^ϵ Met 164: protein 20 μM, 20 μM of each compound; for Δδ Met 60 / Δδ Met 115 / Δδ Met 164: test ligands at 40 μM, EphA4-LDB at 20 μM, Table 8
T2 construct: His tag (N); made in house; host or cells: E. coli Rosetta-Gami B(DE3), pET15b
T2 sequence (P54764 29-209 C204A): as above
Procedure: Peptides were synthesized by using standard solid-phase synthesis protocol, using the BAL resin as anchoring for the C-terminal amines. Isothermal Titration Calorimetry (ITC) measurements were performed in a reverse fashion by titrating the protein into the ligand solution. Solution nuclear magnetic resonance (NMR) experiments were conducted on a 700 MHz Bruker Avance spectrometer equipped with a TCI cryoprobe. […]
2D [^13C,^1H] correlation NMR spectra measured with such protein targets, collected in absence or presence of test ligands can be used to monitor ligand binding and make, albeit qualitative, determinations on possible conformational changes induced by test ligands on the protein target. […] In targeting EphA4, an important aspect regarding the activity of its ligands is whether these agents could be predicted to work as antagonists or agonists.
NMR spectra were acquired on Bruker Avance III 700 MHz spectrometer equipped with a TCI cryoprobe. All NMR data were processed and analyzed using TOPSPIN 3.6.1 (Bruker, Billerica, Mass., USA).
Chemical shift changes (A) in the 2D [^13C, ^1H] spectra were calculated as weight average perturbations observed in the ^1H and ^13C dimensions using the following Equation: […]

[3] = ITC with the ligand binding domain, Table 8, read-out: Kd (nM) vs EphA4

SMILES | Aqueous Solubility (Aqueous solubility) | Kd [1, 3] | -TΔS ([1]; ITC, EphA4-LBD) | AH ([1]; ITC, EphA4-LBD) | Δδ ^13C^ϵ/^1H^ϵ Met 164 [2] | Δδ Met 60 [2] | Δδ Met 115 [2] | Δδ Met 164 [2] | Kd [1] | Kd ([1]; ITC, EphA4-LBD, read-out: Kd (nM)- ITC)
N=C(N)NCCCC[C@H](NC(=O)[C@H](Cc1ccc(-c2ccccc2)cc1)NC(=O)[C@H](Cc1c[nH]c2ccc(O)cc12)NC(=O)[C@H]1CCC[C@H](N)C1)C(=O)NCC(=O)Nc1ccc(CN2CCOCC2)cc1 [Compound 9, (1S,3S)—N—((S)-1-(((S)-3-([1,1′-biphenyl]-4-yl)-1-(((S)-6-guanidino-1-((2-((4-(morpholinomethyl)phenyl)amino)-2-oxoethyl)amino)-1-oxohexan-2-yl)amino)-1-oxopropan-2-yl)amino)-3-(5-hydroxy-1H-indol-3-yl)-1-oxopropan-2-yl)-3-aminocyclohexane-1-carboxamide] ({Cyclohexanoyl(1S,3S-3-NH2)}-[Trp(5-OH)][Bip][hArg]G-{NHPh(4-CH2-morpholino)}) | >50 mM | 144 nM | -1.90 kcal/mol | -7.44 kcal/mol | +++ (0.2< +++ <0.25) | ++ (0.1 ppm < ++ <0.2 ppm) | + (0< + <0.1 ppm) | +++ (0.2< +++ <0.25) | – | –
COc1ccc2[nH]cc(C[C@H](NC(=O)[C@H]3CCC[C@H](N)C3)C(=O)N[C@@H](Cc3ccc(-c4ccccc4)cc3)C(=O)N[C@@H](CCCCNC(=N)N)C(=O)NCC(=O)Nc3ccc(CN4CCOCC4)cc3)c2c1 [Compound 4] ({Cyclohexanoyl(1S,3S-3-NH2)}-[Trp(5-OMe)][Bip][hArg]G-{NHPh(4-CH2-morpholino)}) | – | – | -3.57 kcal/mol | -5.99 kcal/mol | +++ (0.2< +++ <0.25) | – | – | – | 100 nM | –
COc1ccccc1-c1ccc(C[C@H](NC(=O)[C@H](Cc2c[nH]c3ccc(O)cc23)NC(=O)[C@H]2CCC[C@H](N)C2)C(=O)N[C@@H](CCCCNC(=N)N)C(=O)NCC(=O)Nc2ccc(N3CCOCC3)c(F)c2)cc1 [Compound 16] ({Cyclohexanoyl(1S,3S-3-NH2)}-[Trp(5-OH)][Phe(4-(2-MeO-Ph))][hArg]G-X2) | – | – | 0.58 kcal/mol | -10.00 kcal/mol | + (0< + <0.1 ppm) | – | – | – | 127 nM | –
COc1ccccc1-c1ccc(C[C@H](NC(=O)[C@H](Cc2c[nH]c3ccc(O)cc23)NC(=O)[C@H]2CCC[C@H](N)C2)C(=O)N[C@@H](CCCCNC(=N)N)C(=O)NCC(=O)Nc2ccc(CN3CCOCC3)cc2)cc1 [Compound 2, (1S,3S)-3-amino-N—((S)-1-(((S)-1-(((S)-6-guanidino-1-((2-((4-(morpholinomethyl)phenyl)amino)-2-oxoethyl)amino)-1-oxohexan-2-yl)amino)-3-(2′-methoxy-[1,1′-biphenyl]-4-yl)-1-oxopropan-2-yl)amino)-3-(5-hydroxy-1H-indol-3-yl)-1-oxopropan-2-yl)cyclohexane-1-carboxamide] ({Cyclohexanoyl(1S,3S-3-NH2)}-[Trp(5-OH)][Phe(4-(2-MeO-Ph))][hArg]G-{NHPh(4-CH2-morpholino)}) | >50 mM | 77 nM | -0.97 kcal/mol | -8.74 kcal/mol | + (0< + <0.1 ppm) | ++ (0.1 ppm < ++ <0.2 ppm) | + (0< + <0.1 ppm) | + (0< + <0.1 ppm) | 75 nM | –
N=C(N)NCCCC[C@H](NC(=O)[C@H](Cc1ccc(-c2ccccc2)cc1)NC(=O)[C@H](Cc1c[nH]c2ccc(O)cc12)NC(=O)[C@H]1CCC[C@H](N)C1)C(=O)NCC(=O)Nc1ccc(N2CCNCC2)cc1 [Compound 10] ({Cyclohexanoyl(1S,3S-3-NH2)}-[Trp(5-OH)][Bip][hArg]G-X3) | – | – | -1.35 kcal/mol | -8.27 kcal/mol | ++++ (++++ >0.25 ppm) | – | – | – | 90 nM | –
COc1ccc2[nH]cc(C[C@H](NC(=O)[C@H]3CCC[C@H](N)C3)C(=O)N[C@@H](Cc3ccc(-c4ccccc4OC)cc3)C(=O)N[C@@H](CCCCNC(=N)N)C(=O)NCC(=O)Nc3ccc(CN4CCOCC4)cc3)c2c1 [Compound 5] ({Cyclohexanoyl(1S,3S-3-NH2)}-[Trp(5-OMe)][Phe(4-(2-MeO-Ph))][hArg]G-{NHPh(4-CH2-morpholino)}) | – | – | -2.25 kcal/mol | -7.00 kcal/mol | ++ (0.1 ppm < ++ < 0.2 ppm) | – | – | – | 163 nM | –
COc1ccccc1-c1ccc(C[C@H](NC(=O)[C@H](Cc2c[nH]c3ccc(O)cc23)NC(=O)[C@H]2CCC[C@H](N)C2)C(=O)N[C@@H](CCCCNC(=N)N)C(=O)NCC(=O)Nc2ccc(N3CCOCC3)cc2)cc1 [Compound 3, (1S,3S)-3-amino-N—((S)-1-(((S)-1-(((S)-6-guanidino-1-((2-((4-morpholinophenyl)amino)-2-oxoethyl)amino)-1-oxohexan-2-yl)amino)-3-(2′-methoxy-[1,1′-biphenyl]-4-yl)-1-oxopropan-2-yl)amino)-3-(5-hydroxy-1H-indol-3-yl)-1-oxopropan-2-yl)cyclohexane-1-carboxamide] ({Cyclohexanoyl(1S,3S-3-NH2)}-[Trp(5-OH)][Phe(4-(2-MeO-Ph))][hArg]G-{NH(4-morpholinophenyl)}) | >50 mM | – | -0.60 kcal/mol | -8.92 kcal/mol | + (0< + <0.1 ppm) | + (0< + <0.1 ppm) | + (0< + <0.1 ppm) | + (0< + <0.1 ppm) | – | 106 nM
